Experimental data taken from US11414454B2, “Compositions, methods, and systems for affinity-based protein identification and purification” (Auctus Biologies, Inc., priority 2017, dated 2022).
No end group written: not given here.

Key:
[1] = tested on: RPtag large with rhodamine labeled PDGF-β n-terminal peptide; test: Competition of RPtag large / PDGF-β n-terminal peptide binding by unlabeled peptide; conditions: 1 uM RPtag large, 1 uM labeled PDGF-β peptide, unlabeled competitor
Method: An initial Kd was measured between RPtag(large) and the PDGF-β N-terminal peptide (FIG. 16). […] Next, competition experiments were performed using the mutant RPtag(small) peptide Nd2,P5A,E18A.
The direct binding (left) and competition studies (right) presented in FIG. 16 were performed as follows. The indicated concentration of RPtag large was incubated with 20 nM rhodamine labeled PDGF-β n-terminal peptide for 1 h at room temperature, and the fluorescence anisotropy was measured. The curves were fit with the equation f=y0+(ymax−y0)*(Ptot+x+Kd−sqrt((Ptot+x+Kd)^2−4*Ptot*x))/(2*Ptot), where y0 is the baseline anisotropy, ymax is the maximum anisotropy, Ptot is the fixed concentration of labeled peptide used, x is the variable concentration of protein used, and Kd is the measured Kd. […] The curves were fit empirically to a 4 parameter logistic regression. In both cases, the buffer was 50 mM Tris pH 8.0, 0.005% Tween20. Curves were fit in […] each, and the data was averaged for display. Points are mean±SEM (n=3).

RPtag (large) = test: Association/dissociation kinetics of RPtag (small) peptides with RPtag (large) by fluorescence anisotropy; assay type: binding, Thermoanaerobacter tengcongensis; conditions: for koff: LS dissociation, unlabeled competitor peptide
In short: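 Rhodamine-labeled RPtag small incubated with unlabeled RPtag large; binding followed by fluorescence anisotropy and converted to complex concentration. For dissociation, 1000 nM RPtag large complex chased with 0.1 mM unlabeled native or Nd2,P5A,E18A peptide; koff from initial rates or single-exponential fits, kon derived from koff and Kd.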

RPtag (large) resin = test: Affinity-based precipitation/pull-down with RPtag (large) resin; assay type: binding, Thermoanaerobacter tengcongensis; conditions: 7 sequential pulldowns, 6 M guanidine hydrochloride washes
Method: The disclosed proteins and peptides were used in precipitation/pull-down assays. Specifically, rhodamine was tagged with the RPtag(small) Nd8Cd4 peptide and RPtag(large) was immobilized on a resin, as described above.
Briefly, 100 μL 1000 nM rhodamine labeled RPtag(small) peptide was incubated with 2.5 uL wet settled RPtag (large) resin generated as (as described above) in phosphate buffered saline (PBS; Gibco)+1% BSA+0.005% Tween 20 at 4° C. for 60 min with continuous orbital shaking. Samples were then washed 3× with 500 μL of the same buffer with no peptide to remove unbound peptide. Bound RPtag(small) peptides were then eluted with 100 μL 100 mM glycine pH 1.5+0.005% Tween20, and the pH raised by adding 1 μL 1 M borate pH 10.0. The amount eluted was calculated from the blank subtracted fluorescence of the elution versus the load. After each elution, resin was washed once with 500 μL 6M GdnHCl and once with 500 μL phosphate buffered saline (Gibco)+1% BSA+0.005% Tween 20, before repeating the assay.
Sequential precipitation/pulldown trials were performed with the rhodamine labelled RPtag(small) Nd8Cd4 peptide, and the RPtag(large)-resin. After binding and pull-down, the rhodamine-peptide was eluted in 100 mM glycine pH 1.5, the column was washed with water and 6 M guanidine hydrochloride, and then re-equilibrated with buffer (50 mM Tris pH 8.0, 10 mM EDTA). […]

KIANFIPAELKLITKANVQ [Nd2, p5a, e18a, KIANFIPAELKLITKANVQ]
disruption of RPtag(large) binding to PDGF-β N-terminal peptide [1]: could be disrupted
koff (RPtag (large)): 0.000217 ± 1.7e-05 s⁻¹
kf (RPtag (large); S to S* forward rate constant): 0.051 ± 0.001 min⁻¹
kr (RPtag (large); S* to S reverse rate constant, calculated from Keq and kf): 0.19 ± 0.02 min⁻¹
kon (M^−1 min^−1 ) (×10^7) (RPtag (large); S*-LS transition, calculated from measured koff and Kd): 28 ± 2 ×10^7 M^−1 min^−1

PAELKLITK [Nd8, Cd4, PAELKLITK]
binding capacity over sequential pulldowns (RPtag (large) resin): little to no loss of binding capacity
koff (RPtag (large)): >0.033 s⁻¹
binding/unbinding kinetics (RPtag (large); instrument dead time ~1 min): completed within the dead time
